Data from US20120183489A1, “COMPOSITIONS COMPRISING METALLATED MALODOR CONTROL POLYMERS” (priority 2011, published 2012).

Assays:
[1] = benchmark values; cited from earlier work
[2] = system: microbes of soiled sponge samples; assay: Odor prevention through microbe reduction, SOLARIS colorimetric detection on soiled sponge; type: cell-based; settings: soiled sponge treated 15 min, dried 12 h; incubated 120 hrs at 37° C.; Control 2.35 hrs
Method: The Control formulation containing no malodor control polymer or zinc salt, and Formulations containing individual polymers, zinc salts, and zinc-polymer complexes are compared for their effect on odor prevention, through microbe reduction.
Soiled sponge samples were cut into 1×6 cm strips and treated with the solutions (Table 5) for 15 minutes and dried at ambient temperature for 12 hours. The treated 1 cm strips were then cut into 1×1 cm pieces, placed into SOLARIS scintillation vials, and 1 ml of MOPS buffer was added. The open vials were placed into outer SOLARIS vials containing thymolphthalein blue pH indicator and the vials were finally capped. The sealed vials were placed into a SOLARIS machine and incubated for 120 hrs at 37° C. Colorimetric measurements were conducted according to SOLARIS VIV protocol and the detection times of acidic respiratory byproducts were record (Table 5).

[3] = Malodor control performance, headspace SPME GC/MS, butylamine; settings: 5 ml test solution spiked with 5 microliters; 2 h room temperature, 30 min 35° C.; Control = 1.0; pH 7 (ZnCl2 pH 5)
Method: (§1) This example illustrates the malodor efficacy of the HMPs of the present invention. Isovaleric acid was chosen as a chemical surrogate for body odor while butylamine was used as a representative for amine-containing odors such as fish, pet urine, etc. Hydrophobic greasy cooking odors were represented by aldehydes such as nonanal. The solutions are first equilibrated at room temperature for 2 hours, then incubated at 35° C. for 30 minutes. The headspace of each vial is finally sampled using a polydimethyl siloxane (PDMS)/Solid-Phase-Micro-Extraction (SPME) fiber and analyzed by GC/MS. The reductions in head space concentrations of odor molecules are measured and the data are normalized to Control. Lower numbers denote […] of malodor molecules present in the solution that are attributed to high malodor control efficacy of polymers.

[4] = Malodor control performance, headspace SPME GC/MS, isovaleric acid; settings: 5 ml test solution spiked with 5 microliters; 2 h room temperature, 30 min 35° C.; Control = 1.0; pH 7 (ZnCl2 pH 5)
Method: as §1

[5] = Sulfur odor control performance, headspace SPME GC/MS, butanethiol; settings: 5 ml test solution spiked with 3 ppm; 2 h room temperature, 30 min 35° C.; Control = 1.0
Method: (§2) Butanethiol and dipropoyl sulfide were chosen as chemical surrogates for sulfur containing odors such as kitchen (onion/garlic), sewage, etc. These two molecules also enable the assessment of efficacy of polymer for sulfur molecules having different degrees of hydrophobicity (e.g more hydrophobic dipropylsulfide is usually harder to mitigate with hydrophilic technologies such as cyclodextrin). 5 ml test solution was placed in a GC-MS vial and spiked with 3 parts-per-million of butanethiol or dipropylsulfide. The solutions were first equilibrated at room temperature for 2 hours, then incubated at 35° C. for 30 minutes. The headspace of each vial was finally sampled using a PDMS/SPME fiber and analyzed by GC/MS. The reductions in head space concentrations of sulfur molecules were measured and the data were normalized to Control (Table 4).

[6] = Malodor control performance, headspace SPME GC/MS, nonanal; settings: 5 ml test solution spiked with 5 microliters; 2 h room temperature, 30 min 35° C.; Control = 1.0; pH 7 (ZnCl2 pH 5)
Method: as §1

[7] = Sulfur odor control performance, headspace SPME GC/MS, dipropylsulfide; settings: 5 ml test solution spiked with 3 ppm; 2 h room temperature, 30 min 35° C.; Control = 1.0
Method: as §2

Row | Compound | ambient temperature water solubility (benchmark) [1] | Respiratory Byproducts Detection Time [2] | head space concentration of Butylamine (Fish) normalized to Control [3] | head space concentration of Isovaleric Acid (Body) normalized to Control [4] | head space concentration of Butanethiol normalized to Control [5] | head space concentration of Nonanal (Grease) normalized to Control [6] | head space concentration of Dipropylsulfide normalized to Control [7]
1 | OC[C@H]1O[C@@H]2O[C@H]3[C@H](O)[C@@H](O)[C@@H](O[C@H]4[C@H](O)[C@@H](O)[C@@H](O[C@H]5[C@H](O)[C@@H](O)[C@@H](O[C@H]6[C@H](O)[C@@H](O)[C@@H](O[C@H]7[C@H](O)[C@@H](O)[C@@H](O[C@H]8[C@H](O)[C@@H](O)[C@@H](O[C@H]1[C@H](O)[C@H]2O)O[C@@H]8CO)O[C@@H]7CO)O[C@@H]6CO)O[C@@H]5CO)O[C@@H]4CO)O[C@@H]3CO [beta-cyclodextrin] | 1.8 g/100 ml | – | – | – | – | – | –
2 | [Cl-].[Cl-].[Zn+2] [ZnCl2, zinc chloride] | – | 3.38 h | 0.0 | 1.0 | 0.8 | 1.0 | 1.0
3 | hydroxypropyl modified beta cyclodextrin | ≥ 60 g/100 ml | – | – | – | – | – | –
